From US20230248029A1, “Single-Serving Beverage Ingredient Containers Comprising Nanoparticulate Cannabidiol” (priority 2022, published 2023)

Key:
[1] = oral; cited from earlier work
[2] = CBD film formation on the surface of the brewed coffee beverage (visual); format: physicochemical; conditions: Keurig-brewed coffee beverage, visual (FIG. 5A, 5B)
Text: This variability is expected due to the difference in particle size between the CBD powder and the ground coffee, which makes uniform dispersion of the CBD powder throughout the coffee grounds difficult.
Without wishing to be bound by any particular theory, the present inventors hypothesize that more concentrated droplets may be effective to increase the CBD extraction from F68 formulations.
This is because, in the use of Keurig single-serving coffee machines (and in conventional drip coffee makers), the water used is at or near its boiling point, which in any event is much higher than the melting point of CBD (66° C.), and the colloid droplets therefore cannot resist these high temperatures, causing coalescence of the CBD. In some embodiments, therefore, it may be desirable to brew the coffee beverage at a lower temperature, or to brew a conventional (non-CBD-containing) coffee beverage at typical near-boiling temperatures and then mix in a CBD colloid as described herein after the coffee beverage has cooled to below the melting point of CBD (but still at or above the temperature at which the consumer desires to consume the coffee, which on average is about 60° C.); it is to be expressly understood that such embodiments are within the scope of the present disclosure.

[3] = CBD extraction in brewed coffee beverage, pure CBD powder (HPLC); format: physicochemical
Text: To test the extraction efficiency of pure CBD powder in a coffee brewing process, the foil lids of each of several single-serving coffee containers adapted for use in a Keurig single-serving coffee machine were peeled back, a small depression was made in the top of the coffee grounds, and a measured quantity of CBD powder was placed in the depression. The foil lids were then resealed, and the containers were shaken for 30 seconds to disperse the CBD powder throughout the mass of coffee grounds. Each of the containers was then used in a Keurig single-serving coffee machine to brew either a 160 mL coffee beverage or a 300 mL coffee beverage. Mixing the CBD powder throughout the coffee grounds allowed the CBD to melt as hot water flowed downward from the top of the container and through the mass of coffee grounds during the coffee brewing process; relative to simply disposing the CBD powder in the bottom of the container, this reduces the amount of CBD extracted into the coffee beverage but improves the extent to which the CBD is mixed and dispersed with other chemical components extracted with the coffee, thereby inhibiting the formation of a CBD film in the brewed coffee beverage.
For each brewed coffee beverage, the beverage was poured into three separate bottles; a small sample was taken from each bottle and diluted in 10× (by volume) ethanol. This mixture was then shaken and centrifuged to remove coffee components and dissolve the CBD. The supernatant was removed from the centrifuged samples and measured by high-performance liquid chromatography using an Agilent Zorbax Eclipse XDB-C8 column. The mobile phase was a 1 mL/min gradient of 70:30 (vol/vol) acetonitrile:water to 80:20 (vol/vol) acetonitrile:water over 8 minutes. A 20 μL injection was used and the column was kept at 25° C. Absorbance was measured at 210 nm with a 5 nm bandwidth.

[4] = CBD mass 50 mg, beverage volume 160 mL
[5] = CBD mass 50 mg, beverage volume 300 mL
[6] = CBD mass 75 mg, beverage volume 160 mL
[7] = CBD mass 75 mg, beverage volume 300 mL
[8] = CBD mass 100 mg, beverage volume 160 mL
[9] = CBD mass 100 mg, beverage volume 300 mL

C=C(C)[C@@H]1CCC(C)=C[C@H]1c1c(O)cc(CCCCC)cc1O [CBD, cannabidiol]
Maximum theoretical bioavailability of orally administered CBD [1]: 19% | CBD film formation in the brewed coffee beverage [2]: large, thick films | CBD extraction [3, 4]: 22.0 ± 9.6% | CBD in beverage [3, 4]: 8.9 ± 4.4 mg | CBD extraction [3, 5]: 42.1 ± 10.0% | CBD in beverage [3, 5]: 20.3 ± 5.9 mg | CBD extraction [3, 6]: 8.3 ± 6.2% | CBD in beverage [3, 6]: 11.3 ± 4.8 mg | CBD extraction [3, 7]: 15.8 ± 5.2% | CBD in beverage [3, 7]: 11.9 ± 3.9 mg | CBD extraction [3, 8]: 21.0 ± 14.8% | CBD in beverage [3, 8]: 21.0 ± 14.8 mg | CBD extraction [3, 9]: 11.9 ± 3.5% | CBD in beverage [3, 9]: 11.9 ± 3.5 mg
